Assay results from patent US20230405035A1, “MONTBRETIN A FUNCTIONAL FOOD” (THE UNIVERSITY OF BRITISH COLUMBIA, priority 2020, published 2023).

Legend:
[1] = target: T1, human pancreatic α-amylase (HPA) (Homo sapiens, UniProt P04746); test: HPA inhibition IC50 assay with colorimetric substrate CNPG3; type: biochemical; details: following standard bread production processes
T1 sequence (P04746 16-511): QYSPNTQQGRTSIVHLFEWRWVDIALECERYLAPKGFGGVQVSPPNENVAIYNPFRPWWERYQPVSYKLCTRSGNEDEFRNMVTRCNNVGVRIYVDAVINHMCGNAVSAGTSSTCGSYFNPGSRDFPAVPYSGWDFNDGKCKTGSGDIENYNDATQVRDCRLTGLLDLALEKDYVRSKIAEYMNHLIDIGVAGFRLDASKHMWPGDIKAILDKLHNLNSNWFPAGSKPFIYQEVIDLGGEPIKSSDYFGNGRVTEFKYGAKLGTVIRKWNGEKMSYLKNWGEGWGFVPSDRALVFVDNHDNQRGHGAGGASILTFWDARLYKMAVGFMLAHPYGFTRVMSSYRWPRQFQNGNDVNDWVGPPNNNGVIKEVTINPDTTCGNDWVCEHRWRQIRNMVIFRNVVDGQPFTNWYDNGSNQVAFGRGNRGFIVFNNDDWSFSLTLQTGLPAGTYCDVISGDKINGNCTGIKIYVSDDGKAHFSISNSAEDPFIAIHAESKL
Experimental: MbA inhibits the activity of human pancreatic α-amylase (HPA). To determine whether and to what extent the prepared bread extract inhibits HPA, enzymatic assays were performed with the colorimetric substrate 2-chloro-4-nitrophenyl-[…] (CNPG3).
HPA inhibition activity of the bread prepared as described above was determined by monitoring CNPG3 concentration. 20 μL of 200, 100, 40, 20 or 8 mM CNPG3 were combined with 170 μL buffer (50 mM phosphate pH 7.0, 100 mM NaCl) in quartz cuvettes and placed in a CARYXXX UV/Vis spectrophotometer. • 2. To each of the five cuvettes, 10 μL of HPA solution was rapidly added to the 190 μL buffered substrate solution. • 3. Spectrophotometer was set to continuously measure absorbance at 400 nm over 5 min. • 4. […] Rates were calculated from t=1 to t=3 (Δ400 nm/min), plotted against CNPG3 concentration and fit with the Michaelis-Menten equation.
20 μL of 40 mM CNPG was combined with 150 μL buffer and 20 μL MbA− or MbA+ bread extract (either ×100 or ×1000 diluted with water). […] Spectrophotometer was set to continuously measure absorbance at 400 nm over 5 min. • 4. Rates were calculated from t=1 to t=3 (Δ400 nm/min), plotted on a bar graph.
Three sets of bread extractions were done to measure IC50: • A. Bread baked with MbA (MbA+) • B. Bread baked without MbA (MbA−) • C. […] IC50s were measured using the HPA/CNPG3 assay described above: • 1. […]

[2] = HPLC analysis of MbA bread extracts (integrity of MbA after baking); type: physicochemical; details: MbA baked in bread to an internal temperature of 100° C., methanol extract; control = MbA added after baking (MbA*)
Experimental: MbA was added as a primary ingredient to a standard bread recipe and to evaluate the integrity of the additive after baking. To this end MbA was added (45 mg) as part of the raw dough (225 g) and separated into 25 g half-servings after kneading. After baking to an internal temperature of 100° C., the samples were extracted with methanol and subject to HPLC and kinetic analysis. In parallel, control samples containing no MbA (MbA−) or MbA added after baking (MbA*) were assessed in an analogous manner.
Two approximately 225 g batches of bread were prepared, one containing MbA the other with no MbA. For each batch: • 1. 5 mL of yeast was activated by mixing with 62.5 mL 43.3° C. water and ¼ tsp sucrose then incubated on the bench top for 10 min. • 2. ½ cup of all-purpose flour was mixed with ½ cup whole-wheat flour and ⅛ tsp NaCl (and 45 mg* MbA for the MbA+ batch only). *The target MbA concentration was 10 mg per serving of bread:
[formula] • 3. The flour mixture was combined with the activated yeast mixture and 25 mL room temperature water then stirred until a dough formed. • 4. Dough kneaded for 10 min by hand. • 5. Dough was rested at room temperature for 30 min. • 6. […]
100 μL of each bread extract was injected on HPLC as described above. MbA was quantified by integrating the MbA on the HPLC trace to standard curve of known MbA amounts.

SMILES: CC1O[C@@H](O[C@@H]2CO[C@@H](Oc3c(O)cc(-c4oc5cc(O)cc(O)c5c(=O)c4O[C@@H]4OC(C)[C@H](O)[C@H](O)C4O[C@@H]4OC(COC(=O)/C=C/c5ccc(O)c(O)c5)[C@@H](O)[C@@H](O)C4O[C@@H]4OC(CO)[C@@H](O)[C@@H](O)C4O)cc3O)C(O)[C@@H]2O)C(O)[C@@H](O)[C@H]1O (some centres unmarked) [MbA, Montbretin A]
- activity retained relative to the unbaked controls (MbA*) [1]: greater than 80%
- MbA intact relative to control (HPLC traces) [2]: 84%
